# From PubChem BioAssay (NCI)
# Values joined by “and” are separate entries in the source; they are usually repeats but may differ in a detail not shown here. Equal entries are not always repeated.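 96-well plates; 48 h exposure; 5 concentrations. Endpoints by linear interpolation between flanking doses. Not reached: highest tested concentration assigned. The concentration for 50% growth inhibition is given as GI50. TGI: concentration producing complete growth inhibition.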
# Key:
# Test in all cases: NCI tumour cell line growth inhibition, 48 h
# DMS 114 small cell lung = system: DMS 114 small cell lung
# XF 498 CNS = system: XF 498 CNS
# RXF-631 renal = system: RXF-631 renal
# KM20L2 colon = system: KM20L2 colon
# M19-MEL melanoma = system: M19-MEL melanoma
# HOP-18 NSCLC = system: HOP-18 NSCLC
# MDA-N = system: MDA-N
# DMS 273 small cell lung = system: DMS 273 small cell lung
# SNB-78 CNS = system: SNB-78 CNS
# P388 leukemia = system: P388 leukemia
# SN12K1 renal = system: SN12K1 renal
Structure (SMILES),TGI (DMS 114 small cell lung),TGI (XF 498 CNS),TGI (KM20L2 colon),TGI (M19-MEL melanoma),TGI (HOP-18 NSCLC),TGI (MDA-N),TGI (DMS 273 small cell lung),TGI (SNB-78 CNS),further results
CC(C(=O)c1ccc(Cl)cc1)C1OC(=O)C(Cl)=C1Cl (configuration not stated),76.7 µM,84.1 µM,> 100 µM,52.3 µM,> 100 µM,–,–,–,TGI (RXF-631 renal): > 100 µM
NCCP(=O)(O)O,–,–,–,–,–,> 100 µM,–,–,–
CC(CN1CCN(CC(C)Nc2ccnc3cc(Cl)ccc23)CC1)Nc1ccnc2cc(Cl)ccc12 (configuration not stated),41 µM,37.9 µM,26.9 µM,41.4 µM,–,–,29.8 µM,38 µM,TGI (RXF-631 renal): 25.3 µM
CC(O)(CNS(=O)(=O)c1ccccc1)c1ccccc1 (configuration not stated),–,–,–,–,–,> 100 µM,–,–,–
CCc1c(O)c2c(c(O)c1C(C)=O)C(=O)c1c(cc(O)c(C(=O)O)c1C(=O)O)C2=O,–,–,–,–,–,> 100 µM,–,–,–
O=C(O)c1cscc1Cc1cccs1,–,–,–,–,–,> 100 µM,–,–,–
COc1ccc(Cl)cc1NC(=O)c1cccc([N+](=O)[O-])c1O,–,–,89.9 µM,> 100 µM,8.79 µM,> 100 µM,–,> 100 µM,–
CC1CCP(=O)(c2ccccc2)CC1 (configuration not stated),> 100 µM,> 100 µM,> 100 µM,> 100 µM,–,–,> 100 µM,> 100 µM,TGI (RXF-631 renal): > 100 µM
CCc1cccc(C(C)CC)c1NC(=O)C(=O)C(CC(=O)Nc1ccc(Cl)c(Cl)c1)C(=O)OC (configuration not stated),> 100 µM,–,> 100 µM,> 100 µM,–,–,55.9 µM,> 100 µM,–
NC(Cc1ccnnc1)C(=O)O (configuration not stated),–,–,–,–,–,> 100 µM,–,–,–
CCCCN(CCCC)C(=O)C(=O)C(C)C(=O)CC (configuration not stated),–,> 100 µM,> 100 µM,–,–,–,> 100 µM,> 100 µM,–
Cn1c2ccccc2c(=O)c2c([N+](=O)[O-])ccc(NCCN)c21,26.4 µM,28.7 µM,24.1 µM,26 µM,26.4 µM,–,16.9 µM,31.3 µM,–
O=C1C(=O)c2ccccc2C(O)=C1CC=C(Cl)Cl,51.7 µM and 70.5 µM,49.2 µM and 131 µM,200 µM,25.9 µM and 93.8 µM,148 µM,34.9 µM and 172 µM,75.8 µM,55.7 µM and 204 µM,GI50 (DMS 114 small cell lung): 14.5 µM; GI50 (XF 498 CNS): 12.8 µM; GI50 (MDA-N): 6.74 µM; TGI (P388 leukemia): 54.9 µM; TGI (SN12K1 renal): 113 µM; GI50 (KM20L2 colon): 7.04 µM; GI50 (M19-MEL melanoma): 9.49 µM; GI50 (SNB-78 CNS): 11.5 µM
c1cc[c]([Sn]([S]c2cccc3cccnc23)([S]c2cccc3cccnc23)[c]2ccccc2)cc1,0.374 µM,0.407 µM,–,0.542 µM,0.481 µM,–,0.955 µM,0.68 µM,GI50 (DMS 114 small cell lung): 0.164 µM; GI50 (XF 498 CNS): 0.155 µM; GI50 (DMS 273 small cell lung): 0.293 µM; GI50 (RXF-631 renal): 0.159 µM; TGI (RXF-631 renal): 0.324 µM; GI50 (M19-MEL melanoma): 0.216 µM; GI50 (SNB-78 CNS): 0.224 µM; GI50 (HOP-18 NSCLC): 0.193 µM
CC(=O)OC1CCC2(C)C(=CCC3C4CCC5(OC6CC(C)CN(C(C)=O)C6C5C)C(C)=C4C(=O)C32)C1 (configuration not stated),–,–,–,–,–,48.6 µM,–,–,–
CCCCCCCCCCCC(O)=C1C(=O)CC(O)CC1=O (configuration not stated),> 100 µM,> 100 µM,> 100 µM,> 100 µM,> 100 µM,–,> 100 µM,> 100 µM,TGI (RXF-631 renal): > 100 µM
COc1ccc(/C=C(/C)[N+](=O)[O-])cc1,–,–,–,–,–,5.25 µM,–,–,–

Structure (SMILES),TGI (DMS 114 small cell lung),TGI (XF 498 CNS),TGI (KM20L2 colon),TGI (M19-MEL melanoma),TGI (HOP-18 NSCLC),TGI (MDA-N),TGI (DMS 273 small cell lung),TGI (SNB-78 CNS),further results
CC(=O)[C-](C(C)=O)c1ccccc1.CC(=O)[C-](C(C)=O)c1ccccc1.CC[O-].CC[O-].[Ti+4],–,–,> 100 µM,–,–,–,–,–,GI50 (KM20L2 colon): > 100 µM
CCCCCCCCCCCC(=O)c1c(O)cccc1O,34 µM,32.4 µM,48.5 µM,34.5 µM,31 µM,–,34 µM,43.9 µM,TGI (RXF-631 renal): 35.5 µM
Cc1cc(C)c2c(SCc3ccc(Cl)cc3Cl)nc(N)nc2n1,–,–,–,–,–,> 100 µM,–,–,–
COc1ccc(C(=O)C(C(=O)C(=O)Nc2nccs2)c2ccc(OC)cc2)cc1 (configuration not stated),> 100 µM,> 100 µM,> 100 µM,–,> 100 µM,–,> 100 µM,> 100 µM,–
COc1cc(Cl)c2c3c(c(C(=O)c4ccccc4)oc13)CCC2,> 100 µM,> 100 µM,> 100 µM,> 100 µM,> 100 µM,–,> 100 µM,> 100 µM,–
CCCCCC(O)(CCCCC)CCCCCCCCC1=C(O)c2[nH]c(=O)ccc2C(=O)C1=O,16.5 µM,16 µM,27.9 µM,13.8 µM,–,–,12.6 µM,57.8 µM,TGI (RXF-631 renal): 23.8 µM
O=c1c2ccccc2nc(-c2ccccc2)n1O,–,–,–,–,–,> 100 µM,–,–,–
BrC1=CC=C2NCCCCCCN=C3C=CC(Br)=CC=C3NCCCCCCN=C2C=C1,> 25.5 µM,–,> 25.5 µM,> 25.5 µM,–,–,> 25.5 µM,> 25.5 µM,TGI (RXF-631 renal): > 25.5 µM
c1cc(-c2cn[nH]c2)cc(-c2cn[nH]c2)c1,> 100 µM,–,> 100 µM,> 100 µM,–,–,> 100 µM,> 100 µM,TGI (RXF-631 renal): > 100 µM
Cc1nc(Nc2ccccc2)sc1C(=O)NNc1ccc([N+](=O)[O-])cc1[N+](=O)[O-],65.8 µM,55.3 µM,> 100 µM,> 100 µM,> 100 µM,–,> 100 µM,> 100 µM,–
COC(=O)/C(=C/c1ccc(OC)cc1)NC(=O)c1ccccc1,> 100 µM,–,> 100 µM,–,–,–,–,–,–
N[C@@H]1CCCC[C@@H]1N.O=C([O-])CN(CP(=O)([O-])[O-])CP(=O)([O-])[O-].[Pt+2],–,> 100 µM,> 100 µM,> 100 µM,> 100 µM,–,> 100 µM,> 100 µM,GI50 (XF 498 CNS): > 100 µM; GI50 (DMS 273 small cell lung): > 100 µM; GI50 (KM20L2 colon): > 100 µM; GI50 (M19-MEL melanoma): > 100 µM; GI50 (SNB-78 CNS): > 100 µM; GI50 (HOP-18 NSCLC): > 100 µM
N#CC(C(=N/NC(N)=S)/C(=N/NC(N)=S)C(C#N)c1ccc(Cl)cc1)c1ccc(Cl)cc1 (configuration not stated),> 100 µM,> 100 µM,> 100 µM,> 100 µM,> 100 µM,–,> 100 µM,> 100 µM,–
Cc1cc(N(CCC#N)CCC#N)ccc1N=Nc1cccc(Cl)c1,> 100 µM,–,> 100 µM,> 100 µM,–,–,> 100 µM,> 100 µM,–
Cc1cccc(C)c1NC(=O)CCC(=O)NC(N)=S,–,–,> 100 µM,> 100 µM,> 100 µM,–,–,–,–
C1=C(c2ccccc2)SC=C(c2ccccc2)S1,–,–,–,–,–,36.5 µM,–,–,–
